In brackets after ≈: the same amount, converted by molar mass. Several values for one entry are separate records, joined by “and”; a condition that tells them apart may be missing. Equal values may be shown once.
What was measured:
[1] = tested on: Gram-negative (GN) species; experiment: CLSI broth microdilution / agar dilution MIC, spectrum study; type: cell-based; settings: all except E. brevis, M. catarrhalis, N. meningitidis
Method: (§1) CLSI broth microdilution (BMD) and anaerobic agar dilution (AD) methods were performed. Modifications of standard test methods included adding 10% human serum, adjusting the medium pH to 5, 6, and 8, and synergy was assessed by the checkerboard method. Mutational rates to R were determined at 4×.

[2] = tested on: Gram-positive (GP) species; experiment: as above; type: cell-based
Method: as §1

[3] = tested on: Corynebacterium spp.; experiment: CLSI broth microdilution MIC, spectrum study; type: cell-based
Method: as §1

[4] = tested on: E. brevis, M. catarrhalis and N. meningitidis; experiment: CLSI broth microdilution MIC, spectrum study; type: cell-based
Method: as §1

[5] = tested on: Enterococci; experiment: CLSI broth microdilution MIC, spectrum study; type: cell-based
Method: as §1

[6] = tested on: M. luteus; experiment: CLSI broth microdilution MIC, spectrum study; type: cell-based; settings: Micrococcus luteus
Method: as §1

[7] = tested on: S. aureus; experiment: CLSI broth microdilution MIC, spectrum study; type: cell-based; settings: Staphylococcus aureus
Method: as §1

[8] = tested on: streptococci; experiment: CLSI broth microdilution MIC, spectrum study; type: cell-based
Method: as §1

[9] = tested on: S. aureus; experiment: MIC population distribution, 217 S. aureus Canadian isolates; type: cell-based; settings: 217 Canadian isolates
[10] = tested on: WT isolates; experiment: MIC with 10% human serum added; type: cell-based
Method: as §1

[11] = tested on: coagulase-negative staphylococci [CoNS]; experiment: Reference broth microdilution susceptibility testing, Canadian isolates; type: cell-based; settings: 15 isolates
Description: To determine a contemporary susceptibility (S) spectrum pattern. 153 GP isolates (123 S. aureus, 15 coagulase-negative staphylococci [CoNS] and 15 S. pyogenes [SPYO]) were collected from 5 Canadian medical centers between 2001 and 2006.

[12] = tested on: S. aureus MRSA (Mec A genotype); experiment: Agar dilution MIC against resistant S. aureus; type: cell-based; settings: Staphylococcus aureus
Description: The in vitro activity of CEM-102 was compared with that of telithromycin, azithromycin, erythromycin, levofloxacin, linezolid, and doxycycline against a total of 145 resistant S. aureus by agar dilution procedures (CLSI, M7-A7, M100-S18). The tested strains included S. aureus MRSA (Mec A genotype; 100 isolates), macrolide-resistant (ermA, B, C genotype or MLSb-resistant; 25), and ciprofloxacin-resistant (gyrA and parC genotype; 20).

[13] = Single oral dose bioavailability study, fed/fasted crossover; type: in vivo, healthy subjects (human)
Method: Single oral dose bioavailability study of CEM-102 (sodium fusidate). […] This was a single-center, Phase 1, double-blind, randomized, 3 period, fed/fasted crossover bioequivalence study designed to evaluate the relative bioavailability and safety and tolerability of a single oral dose of CEM-102 500 mg compared to Fucidin® 500 mg in healthy subjects. Subjects were randomized in equal numbers to the 4 treatment sequences (Table 3).
Study Period 1, 2, and 3 (Days 1, 15, and 29): One dose of study drug 500 mg (2×250 mg) of CEM-102 or Fucidin® was given at 8:00 AM (˜30 minutes). On Day 1 of Study Periods 1 and 2 (Days 1 and 15), subjects fasted overnight for at least 10 hours prior to dosing. On Day 1 of Study Period 3 (Day 29), subjects were given a high fat caloric meal which was to be entirely consumed within 30 minutes prior to study drug administration.
Blood samples for assay of plasma concentrations were collected on Days 1, 15 and 29 at pre-dose and 0.5, 1, 1.5, 2, 2.5, 3, 3.5, 4, 6, 8, 12, 16, 24, 36, and 48 hours after the dose. Plasma concentrations were assayed at MicroConstants, Inc. in San Diego, Calif. using a validated liquid chromatography with dual tandem mass spectrometry (LC/MS/MS) method with a lower limit of quantitation (LLOQ) of 20.0 ng/mL

[14] = Dose escalation study, single and multiple doses: PK, safety, tolerability; type: in vivo, healthy adult subjects (human)
Method: Dose Escalation Study Using Single- and Multi-Dose FA. The pharmacokinetics (PK), safety, and tolerability of single and multiple doses of CEM-102 (sodium fusidate) were evaluated in a single-center, Phase 1, double-blind, randomized, placebo-controlled, dose-escalating study in 32 healthy adult subjects enrolled in 4 dosage groups (550, 1100, 1650, and 2200 mg). In each cohort, six subjects were to receive CEM-102 and two were to receive placebo in a single dose (Period 1) and then multiple doses BID for a total of 11 doses over 5.5 days (Period 2). The two dosing periods were separated by a seven-day washout period between the single dose in Period 1 and the first dose in Period 2.
Dosing proceeded as planned for Cohorts 1 to 3; however, Cohort 4 received only the single dose of 2200 mg (Period 1), because dose-limiting gastrointestinal intolerance was observed after multiple doses of 1650 mg BID in Cohort 3. Period 2 for Cohort 4 evaluated an initial loading dose regimen, and a second loading dose regimen was evaluated in an additional cohort (Cohort 5) per a protocol amendment.

[15] = cited from earlier work
[16] = tested on: S. aureus; settings: cited from earlier work
[17] = in the blood; cited from earlier work
[18] = tested on: Staphylococcus; settings: cited from earlier work
[19] = Period 1 Day 1, single dose 1650 mg

## CC(=O)O[C@H]1C[C@@]2(C)[C@@H](C[C@@H](O)[C@H]3[C@@]4(C)CC[C@@H](O)[C@@H](C)[C@@H]4CC[C@@]32C)/C1=C(\CCC=C(C)C)C(=O)O [FA, fusidic acid]
[1]
  MIC: ≥ 2 µg/mL
[2]
  MIC values range: 0.06 to 32 µg/mL
[3]
  MIC: ≤ 0.12 µg/mL
[4]
  MIC: 0.12 to 0.5 µg/mL
[5]
  MIC range: 2 to 8 µg/mL
[6]
  MIC: ≤ 0.5 µg/mL
[7]
  MIC: 0.25 µg/mL
[8]
  MIC range: 16 to 32 µg/mL
[9]
  resistance rate (for CEM-102: isolates with MICs of ≥2.0 μg/mL): 6.5%
[10]
  increase in MIC when 10% serum was added: 4 fold
[11]
  MIC50: 0.12 µg/mL (≈ 0.232 µM)
  MIC90: 16 µg/mL (≈ 31 µM)
[12]
  MIC90: 0.25 µg/mL (≈ 0.484 µM)
[13]; 500 mg, fasting
  total exposure (AUC): ~318 µg·h/mL
[13]; 500 mg, fed
  total exposure (AUC): approximately 285 μg·h/mL
[13]; human, in vivo, po
  tmax, median: ~3.00 h
[13]; human, in vivo, po, 500 mg
  t1/2, arithmetic mean ± SD: ~11.8 h
[13]; single oral 500 mg (2×250 mg), fasting
  tmax, median: 3.00 h
[13]; single oral 500 mg (2×250 mg), fed
  tmax, median: 3.50 h
[14]; Period 1 Day 1, single dose 1100 mg
  tmax, median: 3.50 h
[14]; [19]
  T1/2, harmonic mean: 13.9 h
  tmax, median: 3.00 h
[14]; Period 2 Day 6, 1100 mg BID
  tmax, median: 4.00 h
[14]; human, in vivo, 2200 mg
  CL/F, mean: 0.924 L/h
[14]; in vivo
  gastrointestinal AEs after single dose: no gastrointestinal AEs were reported
  serious or life-threatening adverse events: No serious or life-threatening adverse events (AEs) occurred
  tolerability of single doses: well tolerated
[15]; 500 mg TID, steady state after the 4th day
  Cmax in plasma at steady state: 140 µg/mL
[15]; after the first day of treatment, 500 mg TID
  Cmax in plasma: around 30 ug/ml
[15]; oral
  oral bioavailability: around 98%
[16]; FA-resistant strains
  MICs of resistant S. aureus strains: > 256 µg/mL
[16]; S. aureus, without protein
  actual MIC: < 0.25 µg/mL
[16]; S. aureus
  MIC90: 0.12 µg/mL (≈ 0.232 µM)
[17]
  Protein binding: 95-97% and 96-98%
[18]
  MIC in plasma protein: ≥ 2.5 micrograms per ml
  increase of MIC in plasma protein: 8-10 fold
